From US4209529A, “Farnesyl carboxylic acid α-bisabolol ester, a mucosal stabilizing composition and method of manufacturing the same” (Kotobuki Seiyaku Company Limited, priority 1977, dated 1980)

Tests used:
gastric epithelial cell = test: N-acetyl neuromatic acid (NANA) in gastric juice of pylorus-ligated rats (gastric epithelial cell stabilizing effect); format: in vivo, rat (male Donryu strain); set-up: unit not given here; settings: 200 mg./kg. orally, three times a day for 5 days, and after pylorus ligation, 8 h ligation
Experimental: (§1) Male Donryu strain rats, weighing about 200 g., were divided into five groups. […] On the fifth day the animals were fasted for 24 hours, and submitted to pylorus ligation under light ether anethesia.
(§2) The drugs were given just after pylorus ligation orally. After 8 hours of ligation, the rats were sacrificed and gastric juice was collected.

gastric mucosa = test: Gastric errosion induced by 8 hours of pylorus ligation; format: in vivo, rat (male Donryu strain); settings: 200 mg./kg. orally
Experimental: as §1, §2

[1] = tested on: carrageenin-induced rat paw edema; test: Carrageenin-induced rat paw edema; format: in vivo, rat (Wistar); settings: 300 mg./kg. per os
Experimental: To study the effect of the present compound on carrageenin-induced rat paw edema, the method of C. A. Winter (J. Pharmacol 141,369, (1963)) was applied. Wistar rats, weighing about 140 g. were used.
The present compound (III), α-bisabolol and farnesyl carboxylic acid were administered at a dosage of 300 mg./kg. (per os.) using a 1% CMC solution as the vehicle. The % inhibition was calculated as follows: [formula]

stress ulcer = test: Stress ulcer; format: in vivo, rat (male Wistar strain); settings: 100 mg./kg. per os, 30 minutes before the stress; 18 hours stress
Experimental: To study the anti-ulcerative actions of the test drugs in experimental animals, the stress ulcer was selected. Male rats of the Wistar strain, weighing 200-250 g. were subjected to stress according to Takagi et. al. (Chem. Pharm. Bull 12,465. 1964). The four test drugs, the present compound (III), α-bisabolol (I), farnesyl carboxylic acid (II) and gefarnate were suspended in 1% methyl cellulose and were administered to the rats in a dose of 100 mg./kg. body weight per os, 30 minutes before the stress. The animals were placed in the stress box and immersed in water bath of 20°-25° C. to the level of the xiphoid process for 18 hours.
At the end of the stress the animals were removed from the stress box, killed by a blow on the head, and the stomach removed. The stomach was filled with 1% formalin solution, placed in 1% formalin solution for 15 minutes and was then cut open along the greater curvature and examined for lesions to obtain the ulcer index. The ulcer index was determined in six grades (0-5; 5 implying perforation of stomach).

5-HT induced ulcer = test: 5-HT induced ulcer; format: in vivo, rat
Experimental: In the following experiments, the effects of test drugs on 5-HT induced ulcer were investigated. To induce the gastric lesion, rats were fasted for 24 hours before injection of 5-HT 30 mg./kg. S.C. The animals were sacrificed after 20 hours of 5-HT injections, and examined for lesion. The dose and route of administration of test drugs are the same as experiment 3. In the experiment, the area of lesions (mm.^2) were measured as the ulcer-index.

aspirin ulcer = test: Aspirin-induced gastric mucosal lesion (aspirin ulcer); format: in vivo; settings: aspirin 100 mg./kg. per os
Experimental: (§3) Each drug in Table 5, suspended with TWEEN 80 and 1% CMC solution, was given either intraduodenally immediately after pylorus ligation (aspirin ulcer) or orally (indomethacin ulcer) at the volume of 0.5 ml./100 g. Aspirin was given orally 10 min. after pylorus ligation. Indomethacin was given orally 10 min. after drug administration. All animals were sacrificed 7 hrs. after operation.

indomethacin ulcer = test: Indomethacin-induced gastric mucosal lesion (indomethacin ulcer); format: in vivo; settings: 300 mg./kg. orally; indomethacin 20 mg./kg. per os
Experimental: The preventive activity of new compound (III) against the formation of gastric mucosal lesion induced by the gastric ulcerogenic, anti-inflammatory drugs, indomethacin and aspirin was evaluated according to Okabe et. al. (Jap. J. Pharmacol. 24 169 p. 1974, Amer. J. Dig. Dis. 20 626 1975).
as §3

[2] = LD50 by the up and down method; format: in vivo; settings: mouse, in vivo, po; per os; observations for 24 hours
Experimental: (§4) The LD50 value of the present compound in ddY strain mice was determined by the up and down method, with observations carried out for 24 hours.
(§5) The test drugs used in this experiment were suspended in 1% methyl cellulose and were given orally.

ddY strain mice = test: LD50 by the up and down method; format: in vivo; settings: per os; ratio of LD50
Experimental: as §4, §5

[3] = Other pharmacological experiment (mucosal stabilizing, anti-inflammative, wound-healing); settings: another experiment, no data shown
Chemical stability = format: physicochemical
[4] = cited from earlier work; for sedative or depressive activities: Ann. Pharm. France, 33, 229 ('75); for anti-inflammative and anti-ulcerative activities: literature

Structure (SMILES) | Amounts of NANA, bond (gastric epithelial cell) | Amounts of NANA, free (gastric epithelial cell) | Amounts of NANA, total (gastric epithelial cell) | Increase in % of paw edema [1] [%] | Maximum % Inhibition [1] [%] | increased rate of paw-edema (fraction) [1] | score (ulcer index, grades 0-5) (stress ulcer) | Inhibition (aspirin ulcer; 100 mg./kg. intraduodenally) [%] | Ulcer Index, means ± s.e. (aspirin ulcer; 100 mg./kg. intraduodenally) [mm.^2] | Inhibition (aspirin ulcer; 300 mg./kg. intraduodenally) [%] | Ulcer Index, means ± s.e. (aspirin ulcer; 300 mg./kg. intraduodenally) [mm.^2] | Inhibition (aspirin ulcer; 1000 mg./kg. intraduodenally) [%] | Ulcer Index, means ± s.e. (aspirin ulcer; 1000 mg./kg. intraduodenally) [mm.^2] | LD50 at 24 h [2] [mg/kg] | sedative or depressive activities [4] | anti-inflammative and anti-ulcerative activities [4] | further results
CC(C)=CCCC(C)=CCCC(C)=CCC(=O)OC(C)(CCC=C(C)C)C1CC=C(C)CC1 (stereo not shown) [Compound (III), 4,8,12-1,5-dimethyl-1-(4-methyl-3-cyclohexenyl)-4-hexenyl ester of 4,8,12-trimethyl-3,7,11-tridecatrienoic acid] | 71.8 | 16.2 | 88.9 | 60.4 | 39.6 | 0.604 | 1.5 ± 0.50 | 29.8 | 21.4 ± 4.4 | 44.6 | 16.9 ± 3.6 | 65.2 | 10.6 ± 2.2 | 24.1 | – | – | damage to the gastric mucosa (gastric errosion) (gastric mucosa): did not produce any damage to the gastric mucosa; inhibition of the occurrence of lesions (5-HT induced ulcer; 100 mg./kg.): inhibits the occurrence of lesions completely; Ulcer Index (area of lesions) (5-HT induced ulcer; 100 mg./kg. per os, 5-HT 30 mg./kg. S.C., 20 hours): 0 mm.^2; Inhibition (indomethacin ulcer): 42.6%; Ulcer Index, means ± s.e. (indomethacin ulcer): 26.4 ± 5.4 mm.^2; toxicity, times less than that of α-bisabolol and farnesyl carboxylic acid (ddY strain mice): 6-7 times; mucosal stabilizing, anti-inflammative and wound-healing activities [3]: possess mucosal stabilizing anti-inflammative, and wound-healing activities; chemical stability (Chemical stability): chemically stable
CC(C)=CCCC(C)=CCCC(C)=CCC(=O)O [Farnesyl carboxylic acid, 4,8,12-trimethyl-3,7,11-tridecatrienoic acid] | 80.6 | 18.3 | 98.6 | 76.7 | 23.3 | 0.767 | 2.33 ± 0.84 | – | – | – | – | – | – | 4.26 | – | – | –
CC(C)=CCC/C(C)=C/CC/C(C)=C/CCC(=O)OC/C=C(\C)CCC=C(C)C [Gefarnate] | 72.8 | 20.8 | 93.6 | – | – | – | 3.83 ± 0.73 | 22.3 | 23.7 ± 3.2 | 49.9 | 16.2 ± 2.9 | 49.5 | 15.4 ± 4.4 | – | – | – | –
C=CC(C)=CCC=C(C)CCC=C(C)C [farnesene] | – | – | – | – | – | – | – | – | – | – | – | – | – | – | sedative or depressive activities | anti-inflammative and anti-ulcerative activities | –
CC(C)=CCCC(C)(O)C1CC=C(C)CC1 (stereo not drawn) [α-Bisabolol, α-bisabolol] | 136.3 | 12.4 | 148.7 | 88.1 | 11.9 | 0.881 | 4.0 ± 0.25 | – | – | – | – | – | – | 3.67 | sedative or depressive activities | anti-inflammative and anti-ulcerative activities | –
